Test results taken from the NIST ThermoML archive (doi:10.1016/j.jct.2016.07.011).

Conditions: Liquid; for mass density / viscosity: 101.33 kPa; for mass density: Vibrating tube method; for viscosity: Falling or rolling sphere viscometry; for vapor or sublimation pressure: Ebulliometric method (Recirculating still)

OCC(F)(F)C(F)(F)C(F)(F)C(F)F [2,2,3,3,4,4,5,5-octafluoro-1-pentanol]
Conditions | mass density [kg/m3] | vapor or sublimation pressure [kPa] | viscosity [mPa·s]
293.15 K | 1674.2 | – | –
295.65 K | – | – | 13.11
297.55 K | – | – | 12.16
300.15 K | – | – | 10.64
301.55 K | 1667 | – | –
302.15 K | – | – | 9.897
304.15 K | – | – | 8.739
306.15 K | 1659 | – | 8.04
307.65 K | – | – | 7.416
309.05 K | 1655.2 | – | –
309.15 K | – | – | 7.072
311.65 K | – | – | 6.29
312.65 K | 1649.2 | – | –
313.15 K | – | – | 5.94
316.15 K | 1643 | – | –
318.15 K | – | – | 4.822
319.35 K | 1636.4 | – | –
323.15 K | – | – | 3.855
323.25 K | 1630.4 | – | –
327.05 K | 1623.2 | – | –
328.15 K | – | – | 3.298
330.65 K | 1617.8 | – | –
333.15 K | – | – | 2.782
334.35 K | 1609.6 | – | –
338.25 K | 1603.8 | – | –
342.25 K | 1596 | – | –
413.25 K | – | 101.3 | –
413.57 K | – | 101.3 | –

OCC(F)(F)C(F)F [2,2,3,3-tetrafluoro-1-propanol]
Conditions | mass density [kg/m3] | vapor or sublimation pressure [kPa] | viscosity [mPa·s]
293.15 K | 1493.2 | – | –
295.65 K | – | – | 5.029
298.65 K | – | – | 4.489
300.15 K | – | – | 4.274
301.55 K | 1482.8 | – | –
302.15 K | – | – | 3.794
304.15 K | – | – | 3.595
306.15 K | 1474.2 | – | 3.26
307.65 K | – | – | 3.067
309.05 K | 1468.6 | – | –
309.15 K | – | – | 2.954
311.65 K | – | – | 2.703
312.65 K | 1460.2 | – | –
313.15 K | – | – | 2.568
316.15 K | 1454.2 | – | –
318.15 K | – | – | 2.153
319.35 K | 1447.6 | – | –
323.15 K | – | – | 1.848
323.25 K | 1441.8 | – | –
327.05 K | 1434 | – | –
328.15 K | – | – | 1.623
330.65 K | 1427.4 | – | –
333.15 K | – | – | 1.408
334.35 K | 1416.8 | – | –
338.25 K | 1409 | – | –
342.25 K | 1401 | – | –
382.28 K | – | 101.3 | –

CO [methanol]
Conditions | vapor or sublimation pressure [kPa]
337.45 K | 101.3
